Test results as given in patent US20240316215A1, “CONTROLLED DRUG RELEASE MATERIAL” (ADURO MATERIAL AB, priority 2021, published 2024).

Experiments:
[1] = tested on: breast cancer cell lines; settings: read-out: EC50 previously reported; cited from earlier work
[2] = tested on: MCF-7 human breast cancer cells; assay: cells
Excerpt: Cell viability studies are typically conducted on cells that are actively dividing, in the linear range of logarithmic division. However, tumors are typically dense, highly populated 3-dimensional cultures.

- EC50 ([2]; MCF7, MCF-7 cells cultured at 1×10^4/well): 200 µM
- EC50 ([2]; MCF7, MCF-7 cells cultured at 2×10^4/well): 400 µM
- EC50 ([2]; MCF7, MCF-7 cells cultured at 4×10^4/well): 800 µM
- EC50 ([2]; MCF7, lowest cell concentration, 1×10^4 cells/well): 200 µM
SMILES: NC(=O)NO [hydroxyurea]
- EC50 [1]: ~200 µM
